What was measured:
ErbB4 = ErbB4 (Homo sapiens, UniProt Q15303); assay: biochemical; parameters: Kinase selectivity panel, IC50 of AC484 (Supplementary Table 1)
SGK1 = SGK1 (Homo sapiens, UniProt O00141); assay: biochemical; parameters: Kinase selectivity panel, IC50 of AC484 (Supplementary Table 1)
PKCbeta1 = molecular target: T1, PKCbeta1 (Homo sapiens, UniProt P05771); assay: biochemical; parameters: Kinase selectivity panel, IC50 of AC484 (Supplementary Table 1)
T1 construct: gene PRKCB; isoform beta1

CSF1R = CSF1R (Homo sapiens, UniProt P07333); assay: biochemical; parameters: Kinase selectivity panel, IC50 of AC484 (Supplementary Table 1)
_PKCtheta = molecular target: T2, _PKCtheta (Homo sapiens, UniProt Q04759); assay: biochemical; parameters: Kinase selectivity panel, IC50 of AC484 (Supplementary Table 1)
T2 construct: gene PRKCQ

Ck1alpha1 = molecular target: T3, Ck1alpha1 (Homo sapiens, UniProt P48729); assay: biochemical; parameters: Kinase selectivity panel, IC50 of AC484 (Supplementary Table 1)
T3 construct: gene CSNK1A1

PKCbeta2 = molecular target: T4, PKCbeta2 (Homo sapiens, UniProt P05771); assay: biochemical; parameters: Kinase selectivity panel, IC50 of AC484 (Supplementary Table 1)
T4 construct: gene PRKCB; isoform beta2

PAK4KD = molecular target: T5, PAK4KD (Homo sapiens, UniProt O96013); assay: biochemical; parameters: Kinase selectivity panel, IC50 of AC484 (Supplementary Table 1)
T5 construct: gene PAK4; kinase domain

ErbB2 = ErbB2 (Homo sapiens, UniProt P04626); assay: biochemical; parameters: Kinase selectivity panel, IC50 of AC484 (Supplementary Table 1)
RIPK2 = RIPK2 (Homo sapiens, UniProt O43353); assay: biochemical; parameters: Kinase selectivity panel, IC50 of AC484 (Supplementary Table 1)
Wee1 = Wee1 (Homo sapiens, UniProt P30291); assay: biochemical; parameters: Kinase selectivity panel, IC50 of AC484 (Supplementary Table 1)
Description: (§1) Wide-range phosphatase, kinase and preclinical safety pharmacology off-target activity screens were conducted at Eurofins (Extended Data Table 5 and Supplementary Tables 1 and 2). A small phosphatase panel was developed at AbbVie to assess IC50 values on select phosphatases. The following enzymes used in the phosphatase selectivity panel were purchased from Eurofins: PTPN1 (PTP1B; 14–621), PTPN2 (TC-PTP; 14–646), PTPN9 (14–592), SHP1 (14–591) and SHP2 (14–622). The catalytic activity of the phosphatase was monitored using the small-molecule substrate DiFMUP (ThermoFisher) in a fluorescence assay format. In brief, the phosphatase reactions were performed at room temperature in the following assay buffer: 50 mM HEPES, pH 7.2, 100 mM NaCl, 1 mM EDTA, 0.005% Tween-20 and 5 mM TCEP. Each phosphatase was incubated with increasing concentrations of AC484 for 5 min, after which the substrate DiFMUP was added and incubated at 25 °C for 30 min. The final concentration of the enzyme and substrate was maintained at 0.5 nM and 5 μM, respectively, in all the assays. The reaction was then quenched by the addition of a 100 μM solution of bpV(Phen) (Enzo Life Sciences). The fluorescence signal was monitored using an Envision microplate reader (Perkin-Elmer) using excitation and emission wavelengths of 340 nm and 450 nm, respectively. The dose–response curves for the inhibitors were analysed using normalized IC50 regression curve fitting with control-based normalization. Supplementary file 41586_2023_6575_MOESM3_ESM.xlsx: Supplementary Table 1 AC484 kinase selectivity screen.

Plk4 = Plk4 (Homo sapiens, UniProt O00444); assay: biochemical; parameters: Kinase selectivity panel, IC50 of AC484 (Supplementary Table 1)
Description: as §1

STK33 = STK33 (Homo sapiens, UniProt Q9BYT3); assay: biochemical; parameters: Kinase selectivity panel, IC50 of AC484 (Supplementary Table 1)
Description: as §1

PKCdelta = molecular target: T6, PKCdelta (Homo sapiens, UniProt Q05655); assay: biochemical; parameters: Kinase selectivity panel, IC50 of AC484 (Supplementary Table 1)
T6 construct: gene PRKCD
Description: as §1

BTK = BTK (Homo sapiens, UniProt Q06187); assay: biochemical; parameters: Kinase selectivity panel, IC50 of AC484 (Supplementary Table 1)
Description: as §1

LTK = LTK (Homo sapiens, UniProt P29376); assay: biochemical; parameters: Kinase selectivity panel, IC50 of AC484 (Supplementary Table 1)
Description: as §1

Nek2 = Nek2 (Homo sapiens, UniProt P51955); assay: biochemical; parameters: Kinase selectivity panel, IC50 of AC484 (Supplementary Table 1)
Description: as §1

PKA = molecular target: T7, PKA (Homo sapiens, UniProt P17612); assay: biochemical; parameters: Kinase selectivity panel, IC50 of AC484 (Supplementary Table 1)
T7 construct: gene PRKACA
Description: as §1

Abl = molecular target: T8, Abl (Homo sapiens, UniProt P00519); assay: biochemical; parameters: Kinase selectivity panel, IC50 of AC484 (Supplementary Table 1)
T8 construct: gene ABL1
Description: as §1

Gsk3b = Gsk3b (Homo sapiens, UniProt P49841); assay: biochemical; parameters: Kinase selectivity panel, IC50 of AC484 (Supplementary Table 1)
Description: as §1

PTPN2 = molecular target: T9, PTPN2 (Homo sapiens, UniProt P17706); assay: X-ray crystal structure (soak); mobility shift enzyme assay IC50; assay type: biochemical
T9 construct: Met1–Asn314, C-terminal 8× histidine tag (crystal); full-length recombinant (IC50)
Excerpt: X-ray crystal structure (soak); mobility shift enzyme assay IC50 on PTPN2 | The crystal structure of the PTPN2 protein with AC484 confirmed the formation of several crucial interactions in the active site

PTPN1 = molecular target: T10, PTPN1 (Homo sapiens, UniProt P18031); assay: mobility shift enzyme assay with labelled insulin receptor phosphopeptide (crystal with PTPN1 mentioned, data not shown); assay type: biochemical
T10 construct: full-length recombinant
T10 sequence (P18031 whole entry): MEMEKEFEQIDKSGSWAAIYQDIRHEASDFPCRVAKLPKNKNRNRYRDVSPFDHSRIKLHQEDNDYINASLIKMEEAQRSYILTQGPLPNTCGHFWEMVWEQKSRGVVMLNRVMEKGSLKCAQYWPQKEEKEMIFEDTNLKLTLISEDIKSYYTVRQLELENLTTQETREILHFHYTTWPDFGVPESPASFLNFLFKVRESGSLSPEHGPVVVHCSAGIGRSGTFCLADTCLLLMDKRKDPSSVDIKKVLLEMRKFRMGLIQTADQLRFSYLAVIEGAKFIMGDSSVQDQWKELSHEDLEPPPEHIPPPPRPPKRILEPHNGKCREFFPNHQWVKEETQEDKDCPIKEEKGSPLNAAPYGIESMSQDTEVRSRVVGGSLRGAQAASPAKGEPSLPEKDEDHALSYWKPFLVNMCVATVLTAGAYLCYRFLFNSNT

LTK, sequence (P29376 whole entry): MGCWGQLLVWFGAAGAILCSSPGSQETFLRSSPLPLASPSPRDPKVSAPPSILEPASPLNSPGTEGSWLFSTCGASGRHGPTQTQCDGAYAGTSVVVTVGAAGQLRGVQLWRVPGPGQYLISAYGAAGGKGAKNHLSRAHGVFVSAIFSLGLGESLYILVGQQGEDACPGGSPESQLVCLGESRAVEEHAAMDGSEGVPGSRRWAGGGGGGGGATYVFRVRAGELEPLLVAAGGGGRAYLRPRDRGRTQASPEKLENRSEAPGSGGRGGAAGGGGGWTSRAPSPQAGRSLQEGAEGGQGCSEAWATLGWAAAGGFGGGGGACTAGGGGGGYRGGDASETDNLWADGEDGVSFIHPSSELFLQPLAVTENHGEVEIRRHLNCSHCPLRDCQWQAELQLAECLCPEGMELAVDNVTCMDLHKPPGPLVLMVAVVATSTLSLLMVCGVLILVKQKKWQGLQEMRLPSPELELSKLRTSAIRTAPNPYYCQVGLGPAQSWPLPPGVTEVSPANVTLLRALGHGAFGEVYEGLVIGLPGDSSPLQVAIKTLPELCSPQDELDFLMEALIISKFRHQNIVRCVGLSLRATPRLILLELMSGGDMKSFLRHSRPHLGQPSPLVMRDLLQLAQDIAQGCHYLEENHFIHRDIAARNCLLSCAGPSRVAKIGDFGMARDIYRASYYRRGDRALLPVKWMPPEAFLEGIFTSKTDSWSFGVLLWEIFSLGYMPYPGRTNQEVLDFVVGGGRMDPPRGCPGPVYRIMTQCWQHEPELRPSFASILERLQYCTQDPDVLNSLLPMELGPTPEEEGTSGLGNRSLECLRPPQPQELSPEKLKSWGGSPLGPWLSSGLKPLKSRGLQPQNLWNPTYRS
T5 sequence (O96013 whole entry, the tested form may be a part): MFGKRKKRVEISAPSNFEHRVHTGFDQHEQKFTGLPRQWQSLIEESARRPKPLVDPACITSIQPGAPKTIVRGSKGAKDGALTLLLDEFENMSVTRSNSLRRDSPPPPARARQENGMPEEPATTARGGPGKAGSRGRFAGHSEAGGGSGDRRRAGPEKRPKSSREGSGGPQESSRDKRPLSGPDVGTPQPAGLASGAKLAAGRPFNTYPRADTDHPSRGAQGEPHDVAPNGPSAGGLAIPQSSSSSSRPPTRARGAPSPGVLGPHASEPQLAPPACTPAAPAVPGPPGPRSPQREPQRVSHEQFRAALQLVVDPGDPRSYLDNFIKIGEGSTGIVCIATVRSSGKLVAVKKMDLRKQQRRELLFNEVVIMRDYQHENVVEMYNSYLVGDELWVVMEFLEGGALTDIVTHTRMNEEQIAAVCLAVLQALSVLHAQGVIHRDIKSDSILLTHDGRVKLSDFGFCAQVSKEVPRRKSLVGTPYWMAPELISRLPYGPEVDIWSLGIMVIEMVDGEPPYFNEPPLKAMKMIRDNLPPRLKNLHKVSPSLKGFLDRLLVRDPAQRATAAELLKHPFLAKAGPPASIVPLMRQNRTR
T6 sequence (Q05655 whole entry): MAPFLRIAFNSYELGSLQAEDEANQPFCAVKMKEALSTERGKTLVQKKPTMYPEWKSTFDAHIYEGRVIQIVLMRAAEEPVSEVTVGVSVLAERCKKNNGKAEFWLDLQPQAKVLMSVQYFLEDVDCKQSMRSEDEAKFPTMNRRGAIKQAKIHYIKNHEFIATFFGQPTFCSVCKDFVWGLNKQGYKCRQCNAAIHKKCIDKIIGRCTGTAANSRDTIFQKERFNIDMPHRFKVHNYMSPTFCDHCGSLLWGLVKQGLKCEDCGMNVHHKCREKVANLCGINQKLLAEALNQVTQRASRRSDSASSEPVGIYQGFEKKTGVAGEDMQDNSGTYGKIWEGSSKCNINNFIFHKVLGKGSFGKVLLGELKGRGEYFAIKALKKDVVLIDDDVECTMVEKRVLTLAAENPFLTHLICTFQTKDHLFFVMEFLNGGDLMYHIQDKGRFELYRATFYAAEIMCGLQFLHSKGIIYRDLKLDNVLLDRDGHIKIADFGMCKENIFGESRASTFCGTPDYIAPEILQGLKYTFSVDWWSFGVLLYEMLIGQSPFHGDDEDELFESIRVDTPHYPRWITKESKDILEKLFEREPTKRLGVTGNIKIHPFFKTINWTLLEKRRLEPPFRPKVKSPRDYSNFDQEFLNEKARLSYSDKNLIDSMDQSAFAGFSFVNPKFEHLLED
CSF1R, sequence (P07333 whole entry): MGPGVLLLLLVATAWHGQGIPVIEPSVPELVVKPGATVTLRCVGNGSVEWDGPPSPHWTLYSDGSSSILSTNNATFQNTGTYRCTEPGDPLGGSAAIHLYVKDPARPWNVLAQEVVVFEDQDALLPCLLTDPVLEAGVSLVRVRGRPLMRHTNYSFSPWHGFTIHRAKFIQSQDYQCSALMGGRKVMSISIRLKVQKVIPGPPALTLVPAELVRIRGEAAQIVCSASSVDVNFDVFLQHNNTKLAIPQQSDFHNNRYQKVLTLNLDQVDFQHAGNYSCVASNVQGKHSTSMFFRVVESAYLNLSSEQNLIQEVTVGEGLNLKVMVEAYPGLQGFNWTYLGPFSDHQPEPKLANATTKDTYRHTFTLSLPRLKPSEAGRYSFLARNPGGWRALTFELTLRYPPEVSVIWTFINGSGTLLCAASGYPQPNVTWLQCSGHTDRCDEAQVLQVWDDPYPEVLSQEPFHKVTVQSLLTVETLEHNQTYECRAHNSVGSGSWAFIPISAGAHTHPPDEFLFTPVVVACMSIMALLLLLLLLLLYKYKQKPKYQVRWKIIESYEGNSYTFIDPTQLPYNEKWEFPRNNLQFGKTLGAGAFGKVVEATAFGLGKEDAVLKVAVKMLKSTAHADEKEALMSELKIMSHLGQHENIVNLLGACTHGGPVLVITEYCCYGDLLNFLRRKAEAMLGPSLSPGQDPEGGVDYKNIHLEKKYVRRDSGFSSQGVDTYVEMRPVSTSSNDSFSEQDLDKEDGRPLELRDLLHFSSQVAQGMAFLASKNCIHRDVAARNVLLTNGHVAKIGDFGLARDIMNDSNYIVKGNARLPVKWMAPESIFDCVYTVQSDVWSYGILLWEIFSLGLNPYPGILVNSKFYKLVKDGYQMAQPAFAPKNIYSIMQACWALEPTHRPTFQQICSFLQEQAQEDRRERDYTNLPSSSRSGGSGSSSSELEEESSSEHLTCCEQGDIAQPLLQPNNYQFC
T3 sequence (P48729 whole entry): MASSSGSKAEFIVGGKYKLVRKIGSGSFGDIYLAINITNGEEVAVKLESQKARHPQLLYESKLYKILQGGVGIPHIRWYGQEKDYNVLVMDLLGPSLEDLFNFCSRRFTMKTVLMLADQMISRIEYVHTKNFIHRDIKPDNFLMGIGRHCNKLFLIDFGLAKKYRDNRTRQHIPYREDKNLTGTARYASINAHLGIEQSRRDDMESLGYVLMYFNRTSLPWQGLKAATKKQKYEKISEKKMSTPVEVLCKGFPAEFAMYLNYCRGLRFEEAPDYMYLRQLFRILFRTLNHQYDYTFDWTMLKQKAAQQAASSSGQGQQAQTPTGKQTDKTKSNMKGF
BTK, sequence (Q06187 whole entry): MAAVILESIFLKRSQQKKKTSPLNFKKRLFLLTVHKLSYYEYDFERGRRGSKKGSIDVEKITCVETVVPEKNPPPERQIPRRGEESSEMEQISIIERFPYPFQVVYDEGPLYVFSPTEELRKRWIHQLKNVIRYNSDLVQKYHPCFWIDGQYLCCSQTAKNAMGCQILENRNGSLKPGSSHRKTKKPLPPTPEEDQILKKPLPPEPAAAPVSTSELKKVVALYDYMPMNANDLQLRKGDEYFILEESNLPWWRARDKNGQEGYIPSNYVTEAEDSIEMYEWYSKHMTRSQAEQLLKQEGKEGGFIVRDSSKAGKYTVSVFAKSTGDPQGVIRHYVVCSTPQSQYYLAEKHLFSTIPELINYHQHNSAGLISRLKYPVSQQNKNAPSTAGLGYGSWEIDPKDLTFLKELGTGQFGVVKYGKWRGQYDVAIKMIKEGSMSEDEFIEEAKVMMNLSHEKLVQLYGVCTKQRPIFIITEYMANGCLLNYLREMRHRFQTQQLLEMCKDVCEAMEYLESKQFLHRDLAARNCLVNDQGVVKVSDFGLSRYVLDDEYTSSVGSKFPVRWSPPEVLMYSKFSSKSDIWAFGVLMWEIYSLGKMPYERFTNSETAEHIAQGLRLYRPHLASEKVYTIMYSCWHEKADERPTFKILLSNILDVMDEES
STK33, sequence (Q9BYT3 whole entry): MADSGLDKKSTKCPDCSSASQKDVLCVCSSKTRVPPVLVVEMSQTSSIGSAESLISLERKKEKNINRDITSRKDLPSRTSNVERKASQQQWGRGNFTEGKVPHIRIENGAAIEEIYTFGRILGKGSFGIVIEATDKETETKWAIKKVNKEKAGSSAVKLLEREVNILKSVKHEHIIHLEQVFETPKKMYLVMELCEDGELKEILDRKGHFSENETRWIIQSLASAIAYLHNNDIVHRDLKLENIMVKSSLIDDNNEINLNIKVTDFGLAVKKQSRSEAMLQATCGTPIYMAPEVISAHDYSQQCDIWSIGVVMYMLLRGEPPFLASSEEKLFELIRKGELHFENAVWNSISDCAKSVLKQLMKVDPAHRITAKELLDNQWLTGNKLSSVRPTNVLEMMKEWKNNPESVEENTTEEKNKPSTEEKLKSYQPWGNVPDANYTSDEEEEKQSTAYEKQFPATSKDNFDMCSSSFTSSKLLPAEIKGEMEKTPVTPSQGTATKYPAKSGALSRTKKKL

CC(C)CCN[C@@H]1CCc2cc(O)c(N3CC(=O)NS3(=O)=O)c(F)c2C1 [AC484, ABBV-CLS-484]
IC50 (ErbB4): > 10 µM | IC50 (SGK1): > 10 µM | IC50 (PKCbeta1): > 10 µM | IC50 (CSF1R): > 10 µM | IC50 (_PKCtheta): > 10 µM | IC50 (Ck1alpha1): > 10 µM | IC50 (PKCbeta2): > 10 µM | IC50 (PAK4KD): > 10 µM | IC50 (ErbB2): > 10 µM | IC50 (RIPK2): > 10 µM | IC50 (Wee1): > 10 µM | IC50 (Plk4): > 10 µM | IC50 (STK33): > 10 µM | IC50 (PKCdelta): > 10 µM | IC50 (BTK): > 10 µM | IC50 (LTK): > 10 µM | IC50 (Nek2): > 10 µM | IC50 (PKA): > 10 µM | IC50 (Abl): > 10 µM | IC50 (Gsk3b): > 10 µM | IC50 (PTPN2): 0.0018 µM | IC50 (PTPN1): 0.0025 µM

Source: article PMC10599993, “The PTPN2/PTPN1 inhibitor ABBV-CLS-484 unleashes potent anti-tumour immunity” (Nature, 2023)
